Key:
[1] = biological target: T1, human ALK2 R206H (Homo sapiens, UniProt Q04771, R206H); test: Cell-based ALK2-R206H cell activity assay (Smad1-Ser463/Ser465 phosphorylation by AlphaLISA in HEK293-ALK2-R206H cells); conditions: phospho-Smad1 AlphaLISA, read-out: Cell Line (Cell Assay, IC50 class)
T1 construct: expressed in transfected cells; host or cells: HEK293 (ATCC CRL1573), lentivirus transduction, blasticidin selection
T1 sequence (Q04771 21-509 R206H): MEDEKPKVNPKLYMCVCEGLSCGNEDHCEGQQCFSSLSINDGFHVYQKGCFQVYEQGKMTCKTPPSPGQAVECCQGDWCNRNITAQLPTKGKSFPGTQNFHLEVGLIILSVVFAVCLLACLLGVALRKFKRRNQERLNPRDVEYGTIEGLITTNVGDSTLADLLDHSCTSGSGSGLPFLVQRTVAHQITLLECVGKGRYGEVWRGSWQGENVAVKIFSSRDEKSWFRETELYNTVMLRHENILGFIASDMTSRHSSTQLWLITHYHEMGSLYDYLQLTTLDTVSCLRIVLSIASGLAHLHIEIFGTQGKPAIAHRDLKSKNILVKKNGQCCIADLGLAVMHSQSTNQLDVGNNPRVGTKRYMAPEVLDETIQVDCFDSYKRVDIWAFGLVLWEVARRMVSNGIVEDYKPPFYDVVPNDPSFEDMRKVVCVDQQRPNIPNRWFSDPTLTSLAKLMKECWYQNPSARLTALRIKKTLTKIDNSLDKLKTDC
Protocol: Example 11. Cell-Based ALK2-R206H Cell Activity Assay
A HEK293 (ATCC, Cat No. CRL1573) based stable cell line expressing human ALK2 R206H cDNA (synthesized by GeneScript, Piscataway, N.J.) and a FLAG tag at the C-terminus was generated by lentivirus transduction and subsequent blasticidin (Life Technologies, Cat No. A1113902) selection at 10 μg/ml for >2 wks. This cell line was named HEK293-ALK2-R206H.
B. Measurement of Smad1-Ser463/Ser465 Phosphorylation by AlphaLISA
HEK293-ALK2-R206H cells were grown, harvested, and then resuspended in serum-free, phenol red-free DMEM high glucose media (Life Technologies, Cat No. 31053). The media also contained 50 units/ml penicillin and 50 μg/ml streptomycin (Life Technologies, Cat. No. 15070-063). HEK293-ALK2-R206H cells were then plated in white opaque 384-wells microplates (2×10^4/well) (OptiPlate-384, PerkinElmer, Waltham, Mass., Cat No. 6007299) overnight (>16h) at 37° C. 5% CO2 for use in the assay.
Test compounds were first diluted to 4 mM or 0.4 mM and then serially diluted 3-fold into 10 different concentrations using DMSO. Each concentration of compound was further diluted 40-fold with phenol red-free DMEM (Life Technologies, Cat No. 31053). 2 μl of the diluted compounds were then dispensed into the HEK293-ALK2-R206H cell-containing wells of the microplates in duplicates. In this way, each compound was tested in 10 doses (3-fold serial dilution with the top concentration being 10 μM or 1 μM). Liquid handling was achieved using a Bravo Automated Liquid Handling Platform (Agilent Technologies). DMSO without compound was used as a negative control. The positive control was 1 μM LDN193189, a known bone morphogenetic protein (BMP inhibitor).
After 2-3 hours of incubation with test compound or control, the cells were lysed and signal was developed using ALPHASCREEN® SUREFIRE® SMAD1 (p-Ser463/465) cellular kinase assay kit (PerkinElmer, Cat No. TGRSM1S10K) following the manufacturer's recommended protocol. The microplates were read using Perkin Elmer ENVISION® plate reader (emission […]). The signal reflected the level of phospho-Ser/463/465-Smad1 in the lysate. The raw data were plotted using the DMSO negative and LDN193189 positive controls as the 0% and 100% inhibition, respectively. The 10-point dose response curve was used to calculate the IC50 values.
The results of this assay are shown in Table 3 in the column labeled “Cell Assay” wherein “A” represents an IC50 of less than or equal to 100 nM; “B” an IC50 of greater than 100 nM and less than or equal to 500 nM; “C” an IC50 of greater than 500 nM. Blank values in the table indicate that the particular compound was not tested in this assay.

[2] = biological target: T2, ALK2R206H (mutant ALK2, N-terminally tagged with GST) (Homo sapiens, UniProt Q04771, R206H); test: ALK binding assay (LANTHASCREEN TR-FRET competitive binding, displacement of Kinase Tracer 178); conditions: read-out: Binding Assay (IC50 class)
T2 construct: purchased Carna Bioscience or ThermoFisher 09-148 or PV6232
T2 sequence (Q04771 21-509 R206H): T1 sequence (Q04771 21-509 R206H)
Outline: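 GST-tagged ALK2 R206H (2-5 nM) mixed with Eu-anti-GST antibody (4-10 nM), Kinase Tracer 178 (50 nM, near its Kd) and compound titration (1% DMSO) in Kinase Buffer A, 30 min at room temperature. Tracer displacement read as TR-FRET ratio, normalized to controls; IC50 from 4-parameter fit.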

Row | IC50 [1] | IC50 [2] | Structure (SMILES)
1 | 0.1 to 0.5 µM | ≤ 0.01 µM | O=C(OC1COC1)N1CCN(c2ccnc3[nH]c(-c4cn([C@@H]5CCOC5)cn4)cc23)CC1 [Compound 358]
2 | ≤ 0.1 µM | ≤ 0.01 µM | Cn1cnc(-c2cc3c(N4CCN(C(=O)O[C@H]5CCC5(F)F)CC4)ccnc3[nH]2)c1 [Compound 265]
3 | ≤ 0.1 µM | ≤ 0.01 µM | Cn1cc(-c2cc3c(N4CCN(C(=O)[C@@H]5C[C@H]5F)CC4)ccnc3[nH]2)cn1 [Compound 37]
4 | 0.1 to 0.5 µM | ≤ 0.01 µM | CCNC(=O)c1nc(-c2cc3c(N4CCN(C(=O)OC5COC5)CC4)ccnc3[nH]2)cs1 [Compound 415]
5 | ≤ 0.1 µM | ≤ 0.01 µM | O=C(O[C@H]1C[C@H](F)C1)N1CCN(c2ccnc3[nH]c(-c4ccc(C5(O)CCOCC5)cn4)cc23)CC1 [Compound 462]
6 | 0.1 to 0.5 µM | ≤ 0.01 µM | CCOC(=O)N1CCN(c2ccnc3[nH]c(-c4cc(C)n(C)n4)cc23)CC1 [Compound 39]
7 | 0.1 to 0.5 µM | ≤ 0.01 µM | O=C(OC1COC1)N1CCN(c2ccnc3[nH]c(-c4csc(N5CCC(O)CC5)n4)cc23)CC1 [Compound 450]
8 | ≤ 0.1 µM | ≤ 0.01 µM | N#CC1(c2ccc(-c3cc4c(N5CCN(C(=O)C6CC6)CC5)ccnc4[nH]3)c(F)c2)CC1 [Compound 322]
9 | ≤ 0.1 µM | ≤ 0.01 µM | N#Cc1c(-c2nc3c(s2)COCC3)[nH]c2nccc(N3CCN(C(=O)OCC(F)F)CC3)c12 [Compound 440]
10 | ≤ 0.1 µM | ≤ 0.01 µM | O=C(C1CC1)N1CCN(c2ccnc3[nH]c(-c4ccc(C5(O)CCOCC5)cc4)cc23)CC1 [Compound 386]
11 | ≤ 0.1 µM | ≤ 0.01 µM | Cc1cc(-c2cc3c(N4CCN(C(=O)OC5COC5)CC4)ccnc3[nH]2)cs1 [Compound 169]
12 | > 0.5 µM | ≤ 0.01 µM | Cn1cc(-c2cc3c(N4CCN(C(=O)[C@H]5CC[C@H](O)CC5)CC4)ccnc3[nH]2)cn1 [Compound 224]
13 | ≤ 0.1 µM | ≤ 0.01 µM | Cc1nc(-c2[nH]c3nccc(N4CCN(C(=O)OCC(F)F)CC4)c3c2Cl)cn1C [Compound 363]
14 | ≤ 0.1 µM | ≤ 0.01 µM | CCOC(=O)N1CCN(c2ccnc3[nH]c(-c4ncc(CC)s4)cc23)CC1 [Compound 113]
15 | 0.1 to 0.5 µM | ≤ 0.01 µM | CC(C)OC(=O)N1CCN(c2ccnc3[nH]c(-c4cnn(C)c4)cc23)CC1 [Compound 41]
16 | 0.1 to 0.5 µM | ≤ 0.01 µM | Cn1cc(-c2cc3c(N4CCN(C(=O)[C@H]5C[C@@H]5C#N)CC4)ccnc3[nH]2)cn1 [Compound 54]
17 | ≤ 0.1 µM | ≤ 0.01 µM | CCc1cnc(-c2cc3c(N4CCN(C(=O)OC5COC5)CC4)ccnc3[nH]2)s1 [Compound 249]
18 | 0.1 to 0.5 µM | ≤ 0.01 µM | Cn1cc(-c2cc3c(N4CCN(C(=O)CC5CCCC5)CC4)ccnc3[nH]2)cn1 [Compound 135]
19 | ≤ 0.1 µM | ≤ 0.01 µM | Cc1nc(-c2cc3c(N4CCN(C(=O)OC5CC(F)(F)C5)CC4)ccnc3[nH]2)cn1C [Compound 325]
20 | ≤ 0.1 µM | ≤ 0.01 µM | Cc1nc(-c2[nH]c3nccc(N4CCN(C(=O)OC5COC5)CC4)c3c2C#N)cn1C [Compound 288]
21 | 0.1 to 0.5 µM | ≤ 0.01 µM | CCOC(=O)N1CCN(c2ccnc3[nH]c(-c4cnn(C)c4C(F)F)cc23)CC1 [Compound 191]
22 | ≤ 0.1 µM | ≤ 0.01 µM | Cn1cc(-c2cc3c(N4CCN(C(=O)O[C@H]5CC(F)(F)C5(F)F)CC4)ccnc3[nH]2)cn1 [Compound 401]
23 | 0.1 to 0.5 µM | ≤ 0.01 µM | O=C(C1CC1)N1CCN(c2ccnc3[nH]c(-c4ccc(C5(O)COC5)cc4)cc23)CC1 [Compound 283]

Further lines, the compound ahead of its results:

Row | Structure (SMILES) | IC50 [1] | IC50 [2]
24 | Cn1cc(-c2cc3c(N4CCN(C(=O)OC5CCOCC5)CC4)ccnc3[nH]2)cn1 [Compound 234] | 0.1 to 0.5 µM | ≤ 0.01 µM
25 | Cn1cc(-c2[nH]c3nccc(N4CCN(C(=O)O[C@H]5C[C@H](F)C5)CC4)c3c2C#N)cn1 [Compound 295] | ≤ 0.1 µM | ≤ 0.01 µM
26 | O=C(OC1COC1)N1CCN(c2ccnc3[nH]c(-c4cnn(C5CC5)c4)cc23)CC1 [Compound 219] | ≤ 0.1 µM | ≤ 0.01 µM
27 | Cn1cc(-c2[nH]c3nccc(N4CCN(C(=O)O[C@H]5C[C@H](F)C5)CC4)c3c2F)cn1 [Compound 267] | ≤ 0.1 µM | ≤ 0.01 µM
28 | Cn1cc(-c2cc3c(N4CCN(C(=O)C5CC(F)(F)C5)CC4)ccnc3[nH]2)cn1 [Compound 180] | 0.1 to 0.5 µM | ≤ 0.01 µM
29 | O=C(C1CC1)N1CCN(c2ccnc3[nH]c(-c4ccc(N5CCN(CC(F)F)CC5)cc4)cc23)CC1 [Compound 461] | 0.1 to 0.5 µM | ≤ 0.01 µM
30 | O=C(C1CC1)N1CCN(c2ccnc3[nH]c(-c4ncco4)cc23)CC1 [Compound 1] | > 0.5 µM | 0.01 to 0.05 µM
31 | N#Cc1c(-c2nc3c(s2)COCC3)[nH]c2nccc(N3CCN(C(=O)OC4CC4)CC3)c12 [Compound 395] | ≤ 0.1 µM | ≤ 0.01 µM
32 | CCc1ccc(-c2cc3c(N4CCN(C(=O)C5CC5)CC4)ccnc3[nH]2)cc1 [Compound 52] | 0.1 to 0.5 µM | 0.01 to 0.05 µM
33 | O=C(OC1COC1)N1CCN(c2ccnc3[nH]c(-c4nc(C5CC5)cs4)cc23)CC1 [Compound 313] | 0.1 to 0.5 µM | ≤ 0.01 µM
34 | O=C(C1CC1)N1CCN(c2ccnc3[nH]c(-c4ccc(N5CCN6CCOCC6C5)cc4)cc23)CC1 (stereo not shown) [Compound 453] | ≤ 0.1 µM | ≤ 0.01 µM
35 | O=C(OC1COC1)N1CCN(c2ccnc3[nH]c(-c4ncc(C5CC5)s4)cc23)CC1 [Compound 312] | ≤ 0.1 µM | ≤ 0.01 µM
36 | Cc1nc(-c2cc3c(N4CCN(C(=O)O[C@H]5C[C@@H](F)C5)CC4)ccnc3[nH]2)cn1C [Compound 243] | ≤ 0.1 µM | ≤ 0.01 µM
37 | COc1ccc(-c2cc3c(N4CCN(C(=O)C5CC5)CC4)ccnc3[nH]2)cc1 [Compound 60] | 0.1 to 0.5 µM | ≤ 0.01 µM
38 | CCOC(=O)N1CCN(c2ccnc3[nH]c(-c4csc(C)n4)cc23)CC1 [Compound 46] | ≤ 0.1 µM | ≤ 0.01 µM
39 | C[S+]([O-])c1ccc(-c2cc3c(N4CCN(C(=O)C5CC5)CC4)ccnc3[nH]2)cc1 (stereo not shown) [Compound 225] | 0.1 to 0.5 µM | ≤ 0.01 µM
40 | Cn1cc(-c2[nH]c3nccc(N4CCN(C(=O)OC5CS(=O)(=O)C5)CC4)c3c2C#N)cn1 [Compound 414] | ≤ 0.1 µM | ≤ 0.01 µM
41 | Cn1cc(-c2cc3c(N4CCN(C(=O)[C@H]5CC[C@H](C#N)CC5)CC4)ccnc3[nH]2)cn1 [Compound 278] | ≤ 0.1 µM | ≤ 0.01 µM
42 | O=C(OC1COC1)N1CCN(c2ccnc3[nH]c(-c4ccc([C@@]5(O)CCOC5)cc4)cc23)CC1 [Compound 428] | ≤ 0.1 µM | ≤ 0.01 µM
43 | Cn1cc(-c2cc3c(N4CCN(C(=O)OC5COC5)CC4)ccnc3[nH]2)cc1C#N [Compound 203] | ≤ 0.1 µM | ≤ 0.01 µM
44 | CC(C)(C#N)n1cc(-c2cc3c(N4CCN(C(=O)OC5COC5)CC4)ccnc3[nH]2)cn1 [Compound 351] | 0.1 to 0.5 µM | ≤ 0.01 µM
